The NIST ThermoML archive (doi:10.1016/j.jct.2005.08.001)
Numbers after ± are expanded uncertainties.

Assays:
[1] = 313.15 K, Liquid; for vapor or sublimation pressure: Closed cell (Static) method; for mass density: 101.33 kPa, Pycnometric method
[2] = refractive index (Na D-line) (dimensionless); settings: 298.15 K; 101.33 kPa; Liquid; Standard Abbe refractometry

Row | vapor or sublimation pressure [1] [kPa] | mass density [1] [kg/m3] | refractive index [2] | SMILES
1 | 7.375 ± 0.025 | – | – | O [water]
2 | 17.89 ± 0.087 | 772.2 ± 0.5 | 1.3592 ± 0.00075 | CCO [ethanol]
3 | 0.658 ± 0.01 | 922.4 ± 0.6 | 1.43556 ± 0.00075 | CC(=O)N(C)C [N,N-dimethylethanamide]
